Data as given in publication PMC9571063 (Molecules, 2022).

What was measured:
[1] = target: T1, ABL1(F317I)-nonphosphorylated (Homo sapiens, UniProt P00519, F317I); assay: KINOMEscan; format: binding; conditions: read-out: Percent Control
T1 construct: purchased Eurofins DiscoverX KINOMEscan (scanMAX 468)

[2] = target: T2, ABL1(M351T)-phosphorylated (Homo sapiens, UniProt P00519, M351T); assay: KINOMEscan; format: binding; conditions: read-out: Percent Control
T2 construct: purchased Eurofins DiscoverX KINOMEscan (scanMAX 468)

[3] = target: T3, ADCK3 (Homo sapiens, UniProt Q8NI60); assay: KINOMEscan; format: binding; conditions: read-out: Percent Control
T3 construct: purchased Eurofins DiscoverX KINOMEscan (scanMAX 468)

[4] = target: T4, CAMK1B (Homo sapiens, UniProt Q6P2M8); assay: KINOMEscan; format: binding; conditions: read-out: Percent Control
T4 construct: purchased Eurofins DiscoverX KINOMEscan (scanMAX 468)

[5] = target: T5, CDK11 (Homo sapiens, UniProt Q9BWU1); assay: KINOMEscan; format: binding; conditions: read-out: Percent Control
T5 construct: purchased Eurofins DiscoverX KINOMEscan (scanMAX 468)
T5 sequence (Q9BWU1 whole entry): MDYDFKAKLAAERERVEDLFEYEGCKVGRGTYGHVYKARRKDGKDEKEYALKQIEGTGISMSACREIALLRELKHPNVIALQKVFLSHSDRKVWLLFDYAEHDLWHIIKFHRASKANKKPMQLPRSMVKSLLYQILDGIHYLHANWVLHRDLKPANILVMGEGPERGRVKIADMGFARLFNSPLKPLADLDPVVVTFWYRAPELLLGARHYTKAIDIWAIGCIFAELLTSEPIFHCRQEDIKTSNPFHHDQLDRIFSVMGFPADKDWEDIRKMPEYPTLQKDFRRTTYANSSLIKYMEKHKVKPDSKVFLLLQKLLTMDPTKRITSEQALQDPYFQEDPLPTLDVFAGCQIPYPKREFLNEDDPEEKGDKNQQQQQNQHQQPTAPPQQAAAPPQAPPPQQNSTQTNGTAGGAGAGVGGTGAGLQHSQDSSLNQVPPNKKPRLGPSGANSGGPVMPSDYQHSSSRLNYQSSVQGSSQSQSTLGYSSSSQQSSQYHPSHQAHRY

[6] = target: T6, CDK8 (Homo sapiens, UniProt P49336); assay: KINOMEscan; format: binding; conditions: read-out: Percent Control
T6 construct: purchased Eurofins DiscoverX KINOMEscan (scanMAX 468)
T6 sequence (P49336 whole entry): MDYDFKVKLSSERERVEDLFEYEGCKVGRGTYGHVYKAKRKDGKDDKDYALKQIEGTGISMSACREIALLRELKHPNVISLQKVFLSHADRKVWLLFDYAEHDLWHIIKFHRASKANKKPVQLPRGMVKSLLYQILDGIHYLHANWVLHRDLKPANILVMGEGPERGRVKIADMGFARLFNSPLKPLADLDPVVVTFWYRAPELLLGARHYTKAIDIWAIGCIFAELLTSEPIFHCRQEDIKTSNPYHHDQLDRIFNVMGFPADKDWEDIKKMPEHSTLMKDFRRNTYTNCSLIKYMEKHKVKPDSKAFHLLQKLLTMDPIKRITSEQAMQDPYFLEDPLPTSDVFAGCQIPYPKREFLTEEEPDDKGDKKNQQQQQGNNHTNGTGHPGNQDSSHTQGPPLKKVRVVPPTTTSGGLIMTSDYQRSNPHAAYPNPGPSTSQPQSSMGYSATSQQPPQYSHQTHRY

[7] = target: T7, CDKL5 (Homo sapiens, UniProt O76039); assay: KINOMEscan; format: binding; conditions: read-out: Percent Control
T7 construct: purchased Eurofins DiscoverX KINOMEscan (scanMAX 468)

[8] = target: T8, CSF1R-autoinhibited (Homo sapiens, UniProt P07333); assay: KINOMEscan; format: binding; conditions: read-out: Percent Control
T8 construct: purchased Eurofins DiscoverX KINOMEscan (scanMAX 468)
T8 sequence (P07333 539-972 limits assumed): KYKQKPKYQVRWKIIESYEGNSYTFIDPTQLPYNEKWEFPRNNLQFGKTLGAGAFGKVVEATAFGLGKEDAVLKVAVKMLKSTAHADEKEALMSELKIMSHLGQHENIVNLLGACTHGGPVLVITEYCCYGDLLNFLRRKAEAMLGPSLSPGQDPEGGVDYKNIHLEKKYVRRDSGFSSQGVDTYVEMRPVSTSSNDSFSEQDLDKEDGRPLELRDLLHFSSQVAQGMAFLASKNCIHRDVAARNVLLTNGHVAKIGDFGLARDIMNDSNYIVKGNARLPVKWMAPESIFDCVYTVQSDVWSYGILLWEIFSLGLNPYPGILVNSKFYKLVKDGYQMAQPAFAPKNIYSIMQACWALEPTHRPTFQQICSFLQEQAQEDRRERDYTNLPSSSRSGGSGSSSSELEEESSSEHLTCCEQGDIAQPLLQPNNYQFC

[9] = target: T9, CSNK1A1L (Homo sapiens, UniProt Q8N752); assay: KINOMEscan; format: binding; conditions: read-out: Percent Control
T9 construct: purchased Eurofins DiscoverX KINOMEscan (scanMAX 468)

[10] = target: T10, DAPK1 (Homo sapiens, UniProt P53355); assay: KINOMEscan; format: binding; conditions: read-out: Percent Control
T10 construct: purchased Eurofins DiscoverX KINOMEscan (scanMAX 468)

[11] = target: T11, EPHA3 (Homo sapiens, UniProt P29320); assay: KINOMEscan; format: binding; conditions: read-out: Percent Control
T11 construct: purchased Eurofins DiscoverX KINOMEscan (scanMAX 468)
T11 sequence (P29320 21-983): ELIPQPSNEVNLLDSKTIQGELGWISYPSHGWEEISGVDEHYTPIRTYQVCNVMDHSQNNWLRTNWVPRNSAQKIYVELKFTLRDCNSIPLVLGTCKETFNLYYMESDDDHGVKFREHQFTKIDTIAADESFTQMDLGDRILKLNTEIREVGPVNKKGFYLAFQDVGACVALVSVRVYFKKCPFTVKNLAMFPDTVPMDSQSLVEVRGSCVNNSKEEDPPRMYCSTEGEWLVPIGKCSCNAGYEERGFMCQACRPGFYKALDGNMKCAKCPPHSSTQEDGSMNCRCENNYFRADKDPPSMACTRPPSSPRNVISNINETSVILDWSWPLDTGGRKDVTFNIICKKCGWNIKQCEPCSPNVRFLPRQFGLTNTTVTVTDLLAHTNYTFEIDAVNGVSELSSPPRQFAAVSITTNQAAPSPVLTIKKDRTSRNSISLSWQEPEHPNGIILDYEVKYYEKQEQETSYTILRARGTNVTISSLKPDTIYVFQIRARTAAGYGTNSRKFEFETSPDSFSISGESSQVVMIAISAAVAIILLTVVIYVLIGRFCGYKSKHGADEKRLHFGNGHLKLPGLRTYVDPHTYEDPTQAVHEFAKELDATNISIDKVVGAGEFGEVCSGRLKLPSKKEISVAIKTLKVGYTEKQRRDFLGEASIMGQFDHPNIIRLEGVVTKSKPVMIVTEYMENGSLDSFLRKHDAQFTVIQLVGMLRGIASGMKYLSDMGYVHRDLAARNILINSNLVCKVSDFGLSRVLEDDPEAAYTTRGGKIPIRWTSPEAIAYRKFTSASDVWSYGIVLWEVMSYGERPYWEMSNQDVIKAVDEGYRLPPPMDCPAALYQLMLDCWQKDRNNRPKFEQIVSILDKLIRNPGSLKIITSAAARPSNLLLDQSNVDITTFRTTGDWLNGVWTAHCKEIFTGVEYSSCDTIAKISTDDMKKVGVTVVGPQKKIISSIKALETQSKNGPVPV

[12] = target: T12, EPHA5 (Homo sapiens, UniProt P54756); assay: KINOMEscan; format: binding; conditions: read-out: Percent Control
T12 construct: purchased Eurofins DiscoverX KINOMEscan (scanMAX 468)

[13] = target: T13, ERBB3 (Homo sapiens, UniProt P21860); assay: KINOMEscan; format: binding; conditions: read-out: Percent Control
T13 construct: purchased Eurofins DiscoverX KINOMEscan (scanMAX 468)

[14] = target: T14, FAK (Homo sapiens, UniProt Q05397); assay: KINOMEscan; format: binding; conditions: read-out: Percent Control
T14 construct: purchased Eurofins DiscoverX KINOMEscan (scanMAX 468)

[15] = target: T15, FLT3 (Homo sapiens, UniProt P36888); assay: KINOMEscan; format: binding; conditions: read-out: Percent Control
T15 construct: purchased Eurofins DiscoverX KINOMEscan (scanMAX 468)

[16] = target: T16, FLT3(N841I) (Homo sapiens, UniProt P36888, N841I); assay: KINOMEscan; format: binding; conditions: read-out: Percent Control
T16 construct: purchased Eurofins DiscoverX KINOMEscan (scanMAX 468)

[17] = target: T17, INSRR (Homo sapiens, UniProt P14616); assay: KINOMEscan; format: binding; conditions: read-out: Percent Control
T17 construct: purchased Eurofins DiscoverX KINOMEscan (scanMAX 468)
T17 sequence (P14616 27-1297): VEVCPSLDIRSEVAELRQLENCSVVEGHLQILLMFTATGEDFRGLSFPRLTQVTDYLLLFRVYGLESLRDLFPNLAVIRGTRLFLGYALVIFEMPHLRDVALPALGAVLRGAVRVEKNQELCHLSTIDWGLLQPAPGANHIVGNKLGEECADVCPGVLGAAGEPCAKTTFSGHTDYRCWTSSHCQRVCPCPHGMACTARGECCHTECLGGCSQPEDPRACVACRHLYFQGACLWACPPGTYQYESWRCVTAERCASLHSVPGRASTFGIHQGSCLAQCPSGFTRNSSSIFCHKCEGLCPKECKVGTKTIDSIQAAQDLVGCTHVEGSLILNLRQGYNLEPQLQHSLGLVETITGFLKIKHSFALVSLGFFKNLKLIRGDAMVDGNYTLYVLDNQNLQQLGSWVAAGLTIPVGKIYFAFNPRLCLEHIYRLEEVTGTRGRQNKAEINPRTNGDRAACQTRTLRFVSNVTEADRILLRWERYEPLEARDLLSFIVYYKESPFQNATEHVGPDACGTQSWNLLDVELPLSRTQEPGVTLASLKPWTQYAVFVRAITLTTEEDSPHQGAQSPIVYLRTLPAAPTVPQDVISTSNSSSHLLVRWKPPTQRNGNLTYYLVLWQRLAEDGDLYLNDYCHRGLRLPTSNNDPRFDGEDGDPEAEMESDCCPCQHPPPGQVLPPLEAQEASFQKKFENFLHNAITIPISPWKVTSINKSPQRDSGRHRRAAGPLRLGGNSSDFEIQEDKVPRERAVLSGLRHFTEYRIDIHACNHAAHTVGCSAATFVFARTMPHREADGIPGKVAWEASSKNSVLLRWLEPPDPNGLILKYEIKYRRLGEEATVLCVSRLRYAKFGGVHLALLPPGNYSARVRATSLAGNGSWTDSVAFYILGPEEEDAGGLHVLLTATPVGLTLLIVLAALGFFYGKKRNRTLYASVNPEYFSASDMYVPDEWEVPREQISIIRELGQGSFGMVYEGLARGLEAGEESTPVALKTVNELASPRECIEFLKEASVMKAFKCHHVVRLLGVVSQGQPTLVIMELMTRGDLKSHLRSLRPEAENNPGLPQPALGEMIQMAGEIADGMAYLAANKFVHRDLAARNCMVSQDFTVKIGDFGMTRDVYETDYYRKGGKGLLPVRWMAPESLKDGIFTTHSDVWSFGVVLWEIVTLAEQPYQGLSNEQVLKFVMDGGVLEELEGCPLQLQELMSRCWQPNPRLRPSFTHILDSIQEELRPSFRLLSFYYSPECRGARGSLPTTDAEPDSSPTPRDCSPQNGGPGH

[18] = target: T18, JAK2(JH1domain-catalytic) (Homo sapiens, UniProt O60674); assay: KINOMEscan; format: binding; conditions: read-out: Percent Control
T18 construct: JAK2(JH1domain-catalytic); purchased Eurofins DiscoverX KINOMEscan (scanMAX 468)
T18 sequence (O60674 840-1132 limits assumed): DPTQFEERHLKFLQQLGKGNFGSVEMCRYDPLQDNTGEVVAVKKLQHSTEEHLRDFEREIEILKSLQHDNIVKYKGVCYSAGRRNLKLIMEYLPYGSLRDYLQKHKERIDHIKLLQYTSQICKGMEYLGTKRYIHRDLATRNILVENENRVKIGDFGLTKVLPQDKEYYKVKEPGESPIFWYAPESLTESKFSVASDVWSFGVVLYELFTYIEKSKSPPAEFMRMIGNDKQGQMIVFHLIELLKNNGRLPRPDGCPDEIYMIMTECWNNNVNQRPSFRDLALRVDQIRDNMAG

[19] = target: T19, KIT(D816V) (Homo sapiens, UniProt P10721, D816V); assay: KINOMEscan; format: binding; conditions: read-out: Percent Control
T19 construct: purchased Eurofins DiscoverX KINOMEscan (scanMAX 468)

[20] = target: T20, MAK (Homo sapiens, UniProt P20794); assay: KINOMEscan; format: binding; conditions: read-out: Percent Control
T20 construct: purchased Eurofins DiscoverX KINOMEscan (scanMAX 468)

[21] = target: T21, MRCKA (Homo sapiens, UniProt Q5VT25); assay: KINOMEscan; format: binding; conditions: read-out: Percent Control
T21 construct: purchased Eurofins DiscoverX KINOMEscan (scanMAX 468)

[22] = target: T22, NEK7 (Homo sapiens, UniProt Q8TDX7); assay: KINOMEscan; format: binding; conditions: read-out: Percent Control
T22 construct: purchased Eurofins DiscoverX KINOMEscan (scanMAX 468)

[23] = target: T23, PIK3CA(C420R) (Homo sapiens, UniProt P42336, C420R); assay: KINOMEscan; format: binding; conditions: read-out: Percent Control
T23 construct: purchased Eurofins DiscoverX KINOMEscan (scanMAX 468)
T23 sequence (P42336 whole entry C420R): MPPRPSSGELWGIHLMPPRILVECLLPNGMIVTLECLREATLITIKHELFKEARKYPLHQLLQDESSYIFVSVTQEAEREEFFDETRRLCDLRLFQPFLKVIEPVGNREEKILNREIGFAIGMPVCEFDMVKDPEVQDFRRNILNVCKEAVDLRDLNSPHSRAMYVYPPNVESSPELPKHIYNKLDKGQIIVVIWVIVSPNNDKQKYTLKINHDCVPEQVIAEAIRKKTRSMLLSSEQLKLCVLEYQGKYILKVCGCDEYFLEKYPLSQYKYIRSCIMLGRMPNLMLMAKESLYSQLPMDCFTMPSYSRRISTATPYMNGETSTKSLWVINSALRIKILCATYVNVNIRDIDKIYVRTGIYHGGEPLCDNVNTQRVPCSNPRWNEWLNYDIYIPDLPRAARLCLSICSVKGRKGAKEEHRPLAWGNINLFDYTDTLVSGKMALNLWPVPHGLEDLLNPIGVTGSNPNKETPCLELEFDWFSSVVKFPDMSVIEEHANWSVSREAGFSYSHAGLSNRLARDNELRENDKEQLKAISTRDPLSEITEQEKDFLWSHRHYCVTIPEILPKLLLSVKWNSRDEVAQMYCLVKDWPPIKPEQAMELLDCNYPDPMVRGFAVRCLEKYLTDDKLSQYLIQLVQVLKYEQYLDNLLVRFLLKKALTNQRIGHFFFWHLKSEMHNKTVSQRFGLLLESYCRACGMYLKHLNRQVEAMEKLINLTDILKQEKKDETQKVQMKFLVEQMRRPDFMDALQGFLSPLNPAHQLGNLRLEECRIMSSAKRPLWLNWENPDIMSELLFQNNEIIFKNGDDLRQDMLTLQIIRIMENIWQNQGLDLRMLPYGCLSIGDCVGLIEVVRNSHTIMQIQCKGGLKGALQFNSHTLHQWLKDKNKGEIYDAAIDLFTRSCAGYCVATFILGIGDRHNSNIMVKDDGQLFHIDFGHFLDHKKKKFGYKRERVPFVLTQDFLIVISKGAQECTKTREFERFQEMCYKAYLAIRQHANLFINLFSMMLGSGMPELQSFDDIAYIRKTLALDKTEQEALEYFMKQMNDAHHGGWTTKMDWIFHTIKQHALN

[24] = target: T24, PIK3CA(H1047L) (Homo sapiens, UniProt P42336, H1047L); assay: KINOMEscan; format: binding; conditions: read-out: Percent Control
T24 construct: purchased Eurofins DiscoverX KINOMEscan (scanMAX 468)
T24 sequence (P42336 whole entry H1047L): as the sequence (P42336 whole entry C420R) above, with R420C, H1047L counted along it

[25] = target: T25, PIK3CB (Homo sapiens, UniProt P42338); assay: KINOMEscan; format: binding; conditions: read-out: Percent Control
T25 construct: purchased Eurofins DiscoverX KINOMEscan (scanMAX 468)

[26] = target: T26, PLK1 (Homo sapiens, UniProt P53350); assay: KINOMEscan; format: binding; conditions: read-out: Percent Control
T26 construct: purchased Eurofins DiscoverX KINOMEscan (scanMAX 468)

[27] = target: T27, RIPK5 (Homo sapiens, UniProt Q6XUX3); assay: KINOMEscan; format: binding; conditions: read-out: Percent Control
T27 construct: purchased Eurofins DiscoverX KINOMEscan (scanMAX 468)

[28] = target: T28, ROCK2 (Homo sapiens, UniProt O75116); assay: KINOMEscan; format: binding; conditions: read-out: Percent Control
T28 construct: purchased Eurofins DiscoverX KINOMEscan (scanMAX 468)

[29] = target: T29, SBK1 (Homo sapiens, UniProt Q52WX2); assay: KINOMEscan; format: binding; conditions: read-out: Percent Control
T29 construct: purchased Eurofins DiscoverX KINOMEscan (scanMAX 468)

[30] = target: T30, SRPK2 (Homo sapiens, UniProt P78362); assay: KINOMEscan; format: binding; conditions: read-out: Percent Control
T30 construct: purchased Eurofins DiscoverX KINOMEscan (scanMAX 468)

[31] = target: T31, STK33 (Homo sapiens, UniProt Q9BYT3); assay: KINOMEscan; format: binding; conditions: read-out: Percent Control
T31 construct: purchased Eurofins DiscoverX KINOMEscan (scanMAX 468)

[32] = target: T32, TAOK3 (Homo sapiens, UniProt Q9H2K8); assay: KINOMEscan; format: binding; conditions: read-out: Percent Control
T32 construct: purchased Eurofins DiscoverX KINOMEscan (scanMAX 468)

[33] = target: T33, TRKA (Homo sapiens, UniProt P04629); assay: KINOMEscan; format: binding; conditions: read-out: Percent Control
T33 construct: purchased Eurofins DiscoverX KINOMEscan (scanMAX 468)

[34] = target: T34, TYK2(JH1domain-catalytic) (Homo sapiens, UniProt P29597); assay: KINOMEscan; format: binding; conditions: read-out: Percent Control
T34 construct: TYK2(JH1domain-catalytic); purchased Eurofins DiscoverX KINOMEscan (scanMAX 468)

[35] = target: T35, YANK3 (Homo sapiens, UniProt Q86UX6); assay: KINOMEscan; format: binding; conditions: read-out: Percent Control
T35 construct: purchased Eurofins (KINOMEscan, DiscoverX)

[36] = target: T36, ZAK (Homo sapiens, UniProt Q9NYL2); assay: KINOMEscan; format: binding; conditions: read-out: Percent Control
T36 construct: purchased Eurofins (KINOMEscan, DiscoverX)

[37] = tested on: HuH7; design: method as in ref 14 (a number printed in a supplementary file, which may have a reference list of its own: not looked up in the article's list); conditions: DB18[a], footnote not given; read-out: Cytotoxic studies IC50 HuH7; cited from earlier work
[38] = tested on: Caco2; design: method as in ref 14 (a number printed in a supplementary file, which may have a reference list of its own: not looked up in the article's list); conditions: DB18[a], footnote not given; read-out: Cytotoxic studies IC50 Caco2; cited from earlier work
[39] = tested on: MCF7; design: method as in ref 14 (a number printed in a supplementary file, which may have a reference list of its own: not looked up in the article's list); conditions: DB18[a], footnote not given; read-out: Cytotoxic studies IC50 MCF7; cited from earlier work

SMILES: Cc1ccc(-n2cc(COc3cccc4cnc(Nc5cccc(Cl)c5)nc34)nn2)c([N+](=O)[O-])c1 [DB18]
- remaining binding at 1 µM [1]: 100%
- remaining binding at 1 µM [2]: 99%
- remaining binding at 1 µM [3]: 100%
- remaining binding at 1 µM [4]: 86%
- remaining binding at 1 µM [5]: 100%
- remaining binding at 1 µM [6]: 100%
- remaining binding at 1 µM [7]: 100%
- remaining binding at 1 µM [8]: 71%
- remaining binding at 1 µM [9]: 100%
- remaining binding at 1 µM [10]: 100%
- remaining binding at 1 µM [11]: 100%
- remaining binding at 1 µM [12]: 100%
- remaining binding at 1 µM [13]: 99%
- remaining binding at 1 µM [14]: 100%
- remaining binding at 1 µM [15]: 84%
- remaining binding at 1 µM [16]: 77%
- remaining binding at 1 µM [17]: 100%
- remaining binding at 1 µM [18]: 100%
- remaining binding at 1 µM [19]: 100%
- remaining binding at 1 µM [20]: 100%
- remaining binding at 1 µM [21]: 100%
- remaining binding at 1 µM [22]: 85%
- remaining binding at 1 µM [23]: 100%
- remaining binding at 1 µM [24]: 100%
- remaining binding at 1 µM [25]: 100%
- remaining binding at 1 µM [26]: 100%
- remaining binding at 1 µM [27]: 100%
- remaining binding at 1 µM [28]: 100%
- remaining binding at 1 µM [29]: 100%
- remaining binding at 1 µM [30]: 87%
- remaining binding at 1 µM [31]: 100%
- remaining binding at 1 µM [32]: 100%
- remaining binding at 1 µM [33]: 8.9%
- remaining binding at 1 µM [34]: 99%
- remaining binding at 1 µM [35]: 100%
- remaining binding at 1 µM [36]: 97%
- IC50 [37]: 25 µM
- IC50 [38]: 37 µM
- IC50 [39]: 4 µM
